Entries after “also recorded” stand apart in the source; their conditions may differ. Like-named read-outs stand apart in the source and are kept apart here. No end group written: not given here.
Tests used:
[1] = target: T1, active-site-immobilized thrombin (Homo sapiens, UniProt P00734); assay: Direct binding of the peptides to thrombin-agarose (chromatography); settings: 400 μg peptide, 2.5 ml column, elution 2M NaCl
T1 construct: Factor Xa cleaves prothrombin to form thrombin; purchased Haematologic Technologies Inc. (Essex Junction, Vt.)
Description: Direct binding of the peptides to thrombin. Thrombin was immobilized onto agarose through the active site as described. Peptide solutions of HC1-HC5 (SEQ ID NO. 2-6, respectively), D13R (SEQ ID NO. 21), DYDYQ (SEQ ID NO. 11), and P15H (SEQ ID NO. 22) were dissolved in water to a given concentration and then diluted in 20 mM Hepes, 0.1 M NaCl, pH 7.4 in a manner that 400 μg was contained in each starting solution. In control experiments it was determined that the maximum amount of peptide that could be retained by the thrombin-agarose column was 400 μg. Since some of the peptides contain aromatic amino acid residues, their concentration was also measured by optical density.
Mass spectrometry instruments and conditions. The identity of all peptides found in the flow-through or the elution of the thrombin-agarose column was verified by mass spectrometry. Since the peptides were in a buffer solution, we used Liquid Chromatography/Mass Spectrometry (LC/MS) for their identification. In this procedure peptides are first separated from the salt content of the buffer using an HPLC system (HP 1100, HPLC gradient system, Agilent Technologies, Palo Alto Calif.) with a C18 column (1 mm×15 cm, GraceVydac, Hesperia Calif.) with buffers A (0.3% acetic acid in water) and B (0.3% acetic acid in acetonitrile). The elution of the column was monitored with a Micromass Quatro II ESI-Triple Quadrupole Mass Spectrometer (Waters, Milford Mass.). The data were collected using a Compaq Professional Workstation AP200 (Hewlett-Packard, Palo Alto Calif.) and analyzed by the software MassLynx v3.3 (Waters, Milford Mass.).
Direct interaction of hirudin-like peptides from factor tor Va heavy chain With thrombin-agarose. To ascertain that the peptides of interest are inhibitory of prothrombinase activity and contain a binding site for thrombin, the interaction of all peptides with active-site-immobilized thrombin was studied in chromatographic experiments and is shown in FIG. 5. In FIG. 5, small scale chromatography of hirudin-like peptides was performed on a 2.5 ml thrombin-agarose. Each run represents 400 μg of peptide. This amount of peptide was determined to saturate the specific sites of thrombin of the column used (2.5 ml). Elution was performed with 2M NaCl and was started at the point indicated by the arrow (fraction #30). The presence of the peptides in the corresponding fractions was monitored by absorbance at 280 nm (shown on the y axis) and by LC/MS (inset). […] Specifically, these peptides were treated similarly to all other peptides and similar fractions were collected. Aliquots from fractions #7 and #35 from each separate experiment were submitted to LC/MS analysis as described herein (depicted by the hatched arrows at the bottom of the chromatogram). The results from tube #7 from three chromatograms are depicted. The data are presented as % intensity of the signal as a function of the mass of the peptide divided by the charge (m/z). FIG. 5A, HC1 (Mr calculated 1268); FIG. 5B, HC2 (Mr calculated 1132); FIG. 5C, HC5 (Mr calculated 1053). The spectrum of HC1 has two major peaks: at 635.5 and at 424, and one minor peak at 1270 (1268+1). The peak at 635.5 represents the peptide (mass/charge) with two positive charges ([…]) i.e. [(1268+2=1270)]/2=635 whereas, the peak at 424 represents HC1 with three positive charges ([…]) i.e. [(1268+3=1271)]/3=424. […] HC5 spectrum has two major peaks: one at 528 and one at 352. The peak at 528 represents the peptide with two positive charges ([…]) i.e. [(1053+2=1055)]/2=527.5 while, the other peak represents HC5 with three positive charges ([M+31-]^2+) i.e. [(1053+3=1056)]/3=352. The minor peak at 1054 represents the peptide with one charge. It is noteworthy, that in gas phase the number of protons attached to each peptide depends on the number (quantity) of basic residues contained in each peptide. […] Thus, HC1 and HC5 are more likely to bind two or three protons than HC2. […]

prothrombin = target: T2, prothrombin (Homo sapiens, UniProt P00734); assay: KD of peptide for prothrombin, from kinetics of prothrombinase inhibition; format: biochemical
T2 construct: purchased Haematologic Technologies Inc. (Essex Junction, Vt.)
Description: The mechanism of inhibition of prothrombinase by the hirudin-like peptides HC3 and HC4 was addressed by investigating the effect of the peptides on the kinetic parameters of the enzymatic complex (Km and Vmax). For the sake of simplicity only the results obtained with HC4 are shown (FIG. 2C). In FIG. 2C, the data are plotted as V0 (initial velocity, in arbitrary units) as a function of increasing prothrombin concentration in the presence of increasing concentrations of HC4. The lines drawn represent the best fit through the points with an R^2 of 0.99. The concentrations of HC4 used in the experiments are as follows: control no peptide (filled squares), 0.5 μM peptide (filled circles), 1 μM peptide (filled inverted triangles), 1.5 μM peptide (filled diamonds), and 2 μM peptide (filled triangles). […]
In FIG. 3B, the data are plotted as V0 (initial velocity, in arbitrary units) as a function of increasing prothrombin concentration in the presence of increasing concentrations of peptide DYDYQ. […] The kinetic constants calculated from the data presented in this graph were used to calculate the kcat reported in FIG. 7 assuming a final concentration of 4 nM prothrombinase. […]

Kd (prothrombin; from Ki of prothrombinase inhibition, read-out: KD for prothrombin): 0.85 µM | Kd (prothrombin; kinetic model FIG. 7, read-out: KD of inhibitor interaction with prothrombin): ~0.85 µM
Substance: DYDYQ [DYDYQ, Asp-Tyr-Asp-Tyr-Gln]
interaction with immobilized thrombin (thrombin-agarose) [1]: eluted from the column with high-salt buffer; also recorded: interact with immobilized thrombin
